Test results published in patent US20240124460A1, “METHODS AND COMPOSITIONS FOR TARGETED PROTEIN DEGRADATION” (Ranok Therapeutics (Hangzhou) Co. Ltd., priority 2020, published 2024).

Tests used:
[1] = test system: MV-4-11 human acute myeloid leukemia; assay: MV-4-11 CCK-8 proliferation assay; assay type: cell-based; settings: Homo sapiens, MV4-11; MV-4-11 cells, 72 hr
Summary of the method: (§1)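 CCK-8 absorbance read-out, with inhibition expressed against DMSO-treated cells after subtracting a cell-free DMSO medium blank. Compounds tested over a 3-fold dilution series spanning 20 μM to 1.02 nM; lines grown essentially as ATCC recommends.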

[2] = test system: U-87 MG human glioblastoma; assay: U87 MG CCK-8 proliferation assay; assay type: cell-based; settings: Homo sapiens, U-87 MG, 72 h, U-87 MG cells, read-out: U87MG CCK-8
Summary of the method: as §1

EC50 [1] [nM]	EC50 [2] [nM]	SMILES
100 to 1000	100 to 1000	CCNC(=O)c1nnc(-c2cc(C(C)C)c(O)cc2O)n1-c1ccc(CN2CCN(c3ccc(Nc4ncc5c(n4)N(C4CCCC4)c4ccccc4C(=O)N5C)c(OCC)c3)CC2)cc1 [Compound 190, 4-(4-((4-(4-((11-cyclopentyl-5-methyl-6-oxo-6,11-dihydro-5H-benzo[e]pyrimido[5,4-b][1,4]diazepin-2-yl)amino)-3-ethoxyphenyl)piperazin-1-yl)methyl)phenyl)-5-(2,4-dihydroxy-5-isopropylphenyl)-N-ethyl-4H-1,2,4-triazole-3-carboxamide]
< 100	100 to 1000	CCOc1cc(N2CCC(CN3CCN(Cc4ccc(-n5c(C(=O)NC(C)C(F)(F)F)nnc5-c5cc(CC)c(O)cc5O)cc4)CC3)CC2)ccc1Nc1ncc2c(n1)N(S(C)(=O)=O)c1ccccc1C(=O)N2C (stereo not shown) [Compound 185, 4-(4-((4-((1-(3-ethoxy-4-((5-methyl-11-(methylsulfonyl)-6-oxo-6,11-dihydro-5H-benzo[e]pyrimido[5,4-b][1,4]diazepin-2-yl)amino)phenyl)piperidin-4-yl)methyl)piperazin-1-yl)methyl)phenyl)-5-(5-ethyl-2,4-dihydroxyphenyl)-N-(1,1,1-trifluoropropan-2-yl)-4H-1,2,4-triazole-3-carboxamide]
100 to 1000	100 to 1000	CCOc1cc(N2CCC(C(=O)N3CCC(CN4CCN(Cc5ccc(-n6c(C(=O)NC(C)C(F)(F)F)nnc6-c6cc(CC)c(O)cc6OC(=O)C(C)C)cc5)CC4)CC3)CC2)ccc1Nc1ncc2c(n1)N(S(C)(=O)=O)c1ccccc1C(=O)N2C (stereo not shown) [Compound 162, 2-(4-(4-((4-((1-(1-(3-ethoxy-4-((5-methyl-11-(methylsulfonyl)-6-oxo-6,11-dihydro-5H-benzo[e]pyrimido[5,4-b][1,4]diazepin-2-yl)amino)phenyl)piperidine-4-carbonyl)piperidin-4-yl)methyl)piperazin-1-yl)methyl)phenyl)-5-((1,1,1-trifluoropropan-2-yl)carbamoyl)-4H-1,2,4-triazol-3-yl)-4-ethyl-5-hydroxyphenyl isobutyrate]
< 100	< 100	CCOc1cc(N2CCC(C(=O)N3CCN(Cc4ccc(-n5c(C(=O)NCCN(CC)CC)nnc5-c5cc(C(C)C)c(O)cc5O)cc4)CC3)CC2)ccc1Nc1ncc2c(n1)N(S(C)(=O)=O)c1ccccc1C(=O)N2C [Compound 164, N-(2-(diethylamino)ethyl)-5-(2,4-dihydroxy-5-isopropylphenyl)-4-(4-((4-(1-(3-ethoxy-4-((5-methyl-11-(methylsulfonyl)-6-oxo-6,11-dihydro-5H-benzo[e]pyrimido[5,4-b][1,4]diazepin-2-yl)amino)phenyl)piperidine-4-carbonyl)piperazin-1-yl)methyl)phenyl)-4H-1,2,4-triazole-3-carboxamide]
< 100	< 100	CCOc1cc(N2CCC(C(=O)N3CCN(Cc4ccc(-n5c(C(=O)NCCN6CCN(S(C)(=O)=O)CC6)nnc5-c5cc(C(C)C)c(O)cc5O)cc4)CC3)CC2)ccc1Nc1ncc2c(n1)N(C)c1ccccc1C(=O)N2C [Compound 172, 5-(2,4-dihydroxy-5-isopropylphenyl)-4-(4-((4-(1-(4-((5,11-dimethyl-6-oxo-6,11-dihydro-5H-benzo[e]pyrimido[5,4-b][1,4]diazepin-2-yl)amino)-3-ethoxyphenyl)piperidine-4-carbonyl)piperazin-1-yl)methyl)phenyl)-N-(2-(4-(methylsulfonyl)piperazin-1-yl)ethyl)-4H-1,2,4-triazole-3-carboxamide]
